From US9278962B2 (Cytokinetics, Inc., priority 2011, dated 2016)

System: rabbit skeletal myofibrils (approximately 90% fast fibers)
Experiment: Activation of fast skeletal myofibrils (PUMA coupled-enzyme ATPase assay, AC1.4)
Type: biochemical
Conditions: concentration at which the compound increased enzymatic activity by 40%, calcium at pCa25

SMILES | Mean AC1.4 (Table 2) | further results
COc1cccnc1C1(CNc2nc3ccc(Cl)cc3s2)CCC1 [6-chloro-N-((1-(3-methoxypyridin-2-yl)cyclobutyl)methyl)benzo[d] thiazol-2-amine] |  | Mean AC1.4 (Table 4): B (B=1-10 uM)
COc1cccc(Cc2nsc(NCc3ccc(Cl)c(Cl)c3)n2)c1 [[(3,4-dichlorophenyl)methyl]{3-[(3-methoxyphenyl)methyl](1,2,4-thiadiazol-5-yl)}amine] | D (D=>20 uM) | 
N#Cc1ccc2nc(N)sc2c1 [2-aminobenzo[d]thiazole-6-carbonitrile] |  | Mean AC1.4 (Table 4): D (D=>20 uM)
Fc1cccnc1C1(CNc2nc(-c3ccccc3)ns2)CCC1 [{[(3-fluoro(2-pyridyl))cyclobutyl]methyl}(3-phenyl(1,2,4-thiadiazol-5-yl))amine] | B (B=1-10 uM) | 
CNC(=O)c1ccc2nc(NCC(C)(C)c3ccc(F)cc3)sc2c1 [2-(2-(4-fluorophenyl)-2-methylpropylamino)-N-methylbenzo[d]thiazole-6-carboxamide] |  | Mean AC1.4 (Table 4): B (B=1-10 uM)
NC(=O)c1ccc2nc(NCC3(c4ccc(F)cc4)CCC3)sc2c1 [2-((1-(4-fluorophenyl)cyclobutyl)methylamino) benzo[d]thiazole-6-carboxamide] |  | Mean AC1.4 (Table 4): A (A=<1 uM)
CC(C)(CNc1nc(-c2cccnc2)no1)c1ccc(F)cc1 [N-(2-(4-fluorophenyl)-2-methylpropyl)-3-(pyridin-3-yl)-1,2,4-oxadiazol-5-amine] |  | Mean AC1.4 (Table 5): C (C=10-20 uM)
CN1CCC(CNc2nc(-c3cccc(C(N)=O)c3)ns2)(c2ccc(F)cc2)CC1 [3-[5-({[4-(4-fluorophenyl)-1-methyl-4-piperidyl]methyl}amino)-1,2,4-thiadiazol-3-yl]benzamide] | D (D=>20 uM) | 
COc1cccc(Cc2nsc(Nc3ccc(Cl)c(Cl)c3)n2)c1 [(3,4-dichlorophenyl){3-[(3-methoxyphenyl)methyl](1,2,4-thiadiazol-5-yl)}amine] | D (D=>20 uM) | 
Cn1nccc1-c1nnc(NCC2(c3ncccc3F)CCC2)s1 [N-((1-(3-fluoropyridin-2-yl)cyclobutyl)methyl)-5-(1-methyl-1H-pyrazol-5-yl)-1,3,4-thiadiazol-2-amine] |  | Mean AC1.4 (Table 3): D (D=>20 uM)
CCc1ccc(F)c(-c2nnc(NC[C@]3(c4ncccc4F)C[C@H](F)C3)s2)c1 [5-(5-ethyl-2-fluorophenyl)-N-((3-fluoro-1-(3-fluoropyridin-2-yl)cyclobutyl)methyl)-1,3,4-thiadiazol-2-amine] |  | Mean AC1.4 (Table 3): A (A=<1 uM)
Fc1cccnc1C1(CNc2nnc(-c3cscn3)s2)CCC1 [N-((1-(3-fluoropyridin-2-yl)cyclobutyl)methyl)-5-(thiazol-4-yl)-1,3,4-thiadiazol-2-amine] |  | Mean AC1.4 (Table 3): B (B=1-10 uM)
Fc1cccnc1C1(CNc2nc(-c3ccccc3)co2)CCC1 [N-((1-(3-fluoropyridin-2-yl)cyclobutyl)methyl)-4-phenyloxazol-2-amine] |  | Mean AC1.4 (Table 5): D (D=>20 uM)
CC(=O)N1CCC(CNc2nc(-c3cccc(C(N)=O)c3)ns2)(c2ccc(F)cc2)CC1 [3-[5-({[1-acetyl-4-(4-fluorophenyl)-4-piperidyl]methyl}amino)-1,2,4-thiadiazol-3-yl]benzamide] | D (D=>20 uM) | 
N#Cc1ccc(F)c(-c2nnc(NC3(c4ncccc4F)CCC3)[nH]2)c1 [4-fluoro-3-(5-(1-(3-fluoropyridin-2-yl)cyclobutylamino)-4H-1,2,4-triazol-3-yl)benzonitrile] |  | Mean AC1.4 (Table 5): D (D=>20 uM)
COc1cccc(Cc2nsc(NCC(C)c3ccc(Cl)cc3)n2)c1 (stereo not drawn) [[2-(4-chlorophenyl)propyl]{3-[(3-methoxyphenyl)methyl](1,2,4-thiadiazol-5-yl)}amine] | A (A=<1 uM) | 
COc1cccc(Cc2nsc(NCCc3ccc4c(c3)OCO4)n2)c1 [(2-(2H-benzo[d]1,3-dioxolan-5-yl)ethyl){3-[(3-methoxyphenyl)methyl](1,2,4-thiadiazol-5-yl)}amine] | D (D=>20 uM) | 
Fc1ccc(Br)cc1-c1nnc(NC[C@]2(c3ncccc3F)C[C@H](F)C2)s1 [5-(5-bromo-2-fluorophenyl)-N-(((trans)-3-fluoro-1-(3-fluoropyridin-2-yl)cyclobutyl)methyl)-1,3,4-thiadiazol-2-amine] |  | Mean AC1.4 (Table 3): A (A=<1 uM)
C=Cc1ccc(F)c(-c2nnc(NC[C@]3(c4ncccc4F)C[C@H](F)C3)s2)c1 [N-((3-fluoro-1-(3-fluoropyridin-2-yl)cyclobutyl)methyl)-5-(2-fluoro-5-vinylphenyl)-1,3,4-thiadiazol-2-amine] |  | Mean AC1.4 (Table 3): A (A=<1 uM)
N#Cc1ccc(-c2nnc(NC[C@]3(c4ncccc4F)C[C@H](F)C3)s2)s1 [5-(5-((3-fluoro-1-(3-fluoropyridin-2-yl)cyclobutyl)methylamino)-1,3,4-thiadiazol-2-yl)thiophene-2-carbonitrile] |  | Mean AC1.4 (Table 3): D (D=>20 uM)
NC(=O)c1cccc(-c2nsc(NCC(O)c3ccc(F)cc3)n2)c1 (stereo not drawn) [3-(5-{[2-(4-fluorophenyl)-2-hydroxyethyl]amino}-1,2,4-thiadiazol-3-yl)benzamide] | D (D=>20 uM) | 
Oc1cccc(Cc2nsc(NCc3ccc(Cl)c(Cl)c3)n2)c1 [3-[(5-{[(3,4-dichlorophenyl)methyl]amino}-1,2,4-thiadiazol-3-yl)methyl]phenol] | D (D=>20 uM) | 

Now from value to compound, other results behind:

Mean AC1.4 (Table 2) | SMILES | further results
B (B=1-10 uM) | CC(CNc1nc(Cc2ccc(F)cc2)ns1)c1ccc(Cl)cc1 (stereo not drawn) [[2-(4-chlorophenyl)propyl]{3-[(4-fluorophenyl)methyl](1,2,4-thiadiazol-5-yl)}amine] | 
C (C=10-20 uM) | CN1CCN(Cc2nsc(NCC(C)(C)c3ccc(F)cc3)n2)CC1 [[2-(4-fluorophenyl)-2-methylpropyl]{3-[(4-methylpiperazinyl)methyl](1,2,4-thiadiazol-5-yl)}amine] | 
B (B=1-10 uM) | CC(C)(CNc1nc(CNC(=O)CO)ns1)c1ccc(F)cc1 [N-[(5-{[2-(4-fluorophenyl)-2-methylpropyl]amino}(1,2,4-thiadiazol-3-yl))methyl]-2-hydroxyacetamide] | 
D (D=>20 uM) | CC(C)(CNc1nc(CCC(=O)N2CC[C@H](O)C2)ns1)c1ccc(F)cc1 [1-((3S)-3-hydroxypyrrolidinyl)-3-(5-{[2-(4-fluorophenyl)-2-methylpropyl]amino}(1,2,4-thiadiazol-3-yl))propan-1-one] | 
D (D=>20 uM) | CC(Cc1ccc(Cl)cc1)Nc1nc(Cc2ccc(F)cc2)ns1 (stereo not drawn) [[2-(4-chlorophenyl)-isopropyl]{3-[(4-fluorophenyl)methyl](1,2,4-thiadiazol-5-yl)}amine] | 
B (B=1-10 uM) | NC(=O)c1cccc(-c2nsc(NCCc3ccc(F)cc3)n2)c1 [3-(5-{[2-(4-fluorophenyl)ethyl]amino}-1,2,4-thiadiazol-3-yl)benzamide] | 
D (D=>20 uM) | CNCc1nsc(NCC(C)(C)c2ccc(F)cc2)n1 [[(5-{[2-(4-fluorophenyl)-2-methylpropyl]amino}(1,2,4-thiadiazol-3-yl))methyl]methylamine] | 
A (A=<1 uM) | C[C@H](CNc1nc(Cc2cccc(O)c2)ns1)c1ccc(F)cc1 [3-[(5-{[(2S)-2-(4-fluorophenyl)propyl]amino}-1,2,4-thiadiazol-3-yl)methyl]phenol] | 
B (B=1-10 uM) | Fc1ccc(Cc2nsc(NCCc3ccc(Cl)cc3)n2)cc1 [[2-(4-chlorophenyl)ethyl]{3-[(4-fluorophenyl)methyl](1,2,4-thiadiazol-5-yl)}amine] | 
C (C=10-20 uM) | CC(C)(CNc1nc(CCN2CC[C@H](O)C2)ns1)c1ccc(F)cc1 [(3S)-1-[2-(5-{[2-(4-fluorophenyl)-2-methylpropyl]amino}(1,2,4-thiadiazol-3-yl))ethyl]pyrrolidin-3-ol] | 
D (D=>20 uM) | Nc1ccc(CCNc2nc(Cc3ccc(F)cc3)ns2)cc1 [[2-(4-aminophenyl)ethyl]{3-[(4-fluorophenyl)methyl](1,2,4-thiadiazol-5-yl)}amine] | 
C (C=10-20 uM) | COC(=O)N1CCN(Cc2nsc(NCC(C)(C)c3ccc(F)cc3)n2)CC1 [methyl 4-[(5-{[2-(4-fluorophenyl)-2-methylpropyl]amino}-1,2,4-thiadiazol-3-yl)methyl]piperazinecarboxylate] | 
D (D=>20 uM) | CN(C)CCNc1nsc(NCC(C)(C)c2ccc(F)cc2)n1 [{2-[(5-{[2-(4-fluorophenyl)-2-methylpropyl]amino}(1,2,4-thiadiazol-3-yl))amino]ethyl}dimethylamine] | 
C (C=10-20 uM) | COc1cccc(Cc2nsc(NCCc3ccc(Cl)cc3Cl)n2)c1 [[2-(2,4-dichlorophenyl)ethyl]{3-[(3-methoxyphenyl)methyl](1,2,4-thiadiazol-5-yl)}amine] | 
B (B=1-10 uM) | CC(C)(CNc1nc(-c2ccccc2CO)ns1)c1ccc(F)cc1 [[2-(5-{[2-(4-fluorophenyl)-2-methylpropyl]amino}-1,2,4-thiadiazol-3-yl)phenyl]methan-1-ol] | 
D (D=>20 uM) | Fc1ccc(Cc2nsc(NCCc3ccccn3)n2)cc1 [{3-[(4-fluorophenyl)methyl](1,2,4-thiadiazol-5-yl)}(2-(2-pyridyl)ethyl)amine] | 
D (D=>20 uM) | COC(=O)N1CCN(CCc2nsc(NCC(C)(C)c3ccc(F)cc3)n2)CC1 [methyl 4-[2-(5-{[2-(4-fluorophenyl)-2-methylpropyl]amino}-1,2,4-thiadiazol-3-yl)ethyl]piperazinecarboxylate] | 
D (D=>20 uM) | Fc1ccc(Cc2nsc(NCCc3ccncc3)n2)cc1 [{3-[(4-fluorophenyl)methyl](1,2,4-thiadiazol-5-yl)}(2-(4-pyridyl)ethyl)amine] | 
D (D=>20 uM) | CN(C)CCc1nsc(NCC(C)(C)c2ccc(F)cc2)n1 [[2-(5-{[2-(4-fluorophenyl)-2-methylpropyl]amino}(1,2,4-thiadiazol-3-yl))ethyl]dimethylamine] | 
D (D=>20 uM) | Cc1ccc(Cc2nsc(NCCc3ccc(Cl)cc3Cl)n2)cc1 [[2-(2,4-dichlorophenyl)ethyl]{3-[(4-methylphenyl)methyl](1,2,4-thiadiazol-5-yl)}amine] | 
